# How the values were obtained:
# Format in all cases: physicochemical
# [1] = Absorption measurement in chloroform (maximum absorption wavelength, molar absorbance coefficient); settings: for Molar Absorbance Coefficient: 1 cm cell
# Protocol: Measuring methods of the molar absorbance coefficient of the subphthalocyanine derivatives having the phosphorus derivative-substituted group obtained in the Examples 1-9 and the halo boron subphthalocyanine obtained in Synthesis Examples 1-4 were carried out as follows.
# 10.0 mg of the obtained compound was completely dissolved in 100 ml of chloroform. Then 10 ml of the solution was diluted with 100 ml of chloroform. Thus the absorbance of the obtained solution was measured using spectrophotometer (UV-1700 available from Shimadzu Corporation). Molar absorbance coefficient • was calculated using the following equation: A=•×C×l (A: absorbance, C: concentration (mol/L), l: light path (cm)) In the measurement, light pass length of the cell is 1 cm long.
# [2] = Solubility to methyl ethyl ketone; settings: for solubility (in words): compared with the halo boron intermediate compounds
# [3] = Dissolution in coating solution for film manufacture; settings: 0.5 parts in 68.5 parts cyclohexanone and 30 parts methyl ethyl ketone with 1.0 parts polycarbonate
# Protocol: 0.5 parts of Compound 1 obtained in Example 1 and 1.0 parts of polycarbonate were added into 68.5 parts of cyclohexanone and 30 parts of methyl ethyl ketone and stirred and dissolved to obtain a coating solution.
# A film was manufactured in the same way as in Example 10 except that Intermediate Compound 1 obtained in Synthesis Example 1 was used in place of Compound 1 in Example 10.
Molecule,Maximum Absorption Wavelength [1],Molar Absorbance Coefficient [1],Solubility ([2]; Solvent: Methyl Ethyl Ketone),Solubility ([2]; methyl ethyl ketone),solubility (in words) ([2]; methyl ethyl ketone),dissolution in coating liquid [3]
(t-Bu)3SubPcBOPO(OBu)2 [Compound 7],568.0 nm,7.62 ×10^−4 Lmol^−1cm^−1,>10 wt %,–,–,–
(t-Bu)3SubPcBOPOPh2 [Compound 5],570.5 nm,8.74 ×10^−4 Lmol^−1cm^−1,>10 wt %,–,–,–
"CCCCOP(=O)(OCCCC)OB1n2c3c4ccccc4c2/N=C2N=C(/N=c4/c5ccccc5c(n41)=N3)c1ccccc1\2 [Compound 4, SubPcBOPO(OBu)2]",562.5 nm,7.78 ×10^−4 Lmol^−1cm^−1,>10 wt %,more than 10 % by weight,remarkably improved,–
(PhS)3SubPcBOPOPh2 [Compound 24],584.5 nm,7.24 ×10^−4 Lmol^−1cm^−1,>10 wt %,–,–,–
"(PhS)3SubPcBCl [Intermediate Compound 11, reference compound]",586.0 nm,7.58 ×10^−4 Lmol^−1cm^−1,–,–,–,–
(i-C5H11S)3SubPcBOPOPh2 [Compound 11],586.0 nm,7.12 ×10^−4 Lmol^−1cm^−1,>10 wt %,–,–,–
"(t-Bu)3 SubPcBCl [Intermediate Compound 2, reference compound]",–,–,>10 wt %,–,–,–
"(i-C5H11S)3 SubPcBCl [Intermediate Compound 6, reference compound]",587.5 nm,5.82 ×10^−4 Lmol^−1cm^−1,–,–,–,–
"O=P(OB1n2c3c4ccccc4c2/N=C2N=C(/N=c4/c5ccccc5c(n41)=N3)c1ccccc1\2)(c1ccccc1)c1ccccc1 [Compound 1, SubPcBOPOPh2]",564.0 nm,7.69 ×10^−4 Lmol^−1cm^−1,0.44 wt %,–,remarkably improved,–
"O=P(OB1n2c3c4ccccc4c2/N=C2N=C(/N=c4/c5ccccc5c(n41)=N3)c1ccccc1\2)(Oc1ccccc1)Oc1ccccc1 [Compound 3, SubPcBOPO(OPh)2]",564.5 nm,6.96 ×10^−4 Lmol^−1cm^−1,0.34 wt %,–,remarkably improved,–
"ClB1n2c3c4ccccc4c2/N=C2N=C(/N=c4/c5ccccc5c(n41)=N3)c1ccccc1\2 [Intermediate Compound 1, SubPcBCl, reference compound]",565.0 nm,5.10 ×10^−4 Lmol^−1cm^−1,0.003 wt %,–,–,could not be fully dissolved
(PhS)3SubPcBOPO(OBu)2 [Compound 26],584.0 nm,9.95 ×10^−4 Lmol^−1cm^−1,>10 wt %,–,–,–
(i-C5H11S)3SubPcBOPO(OPh)2 [Compound 13],586.5 nm,8.20 ×10^−4 Lmol^−1cm^−1,–,–,–,–

# Reference: US8105431B2, “Subphthalocyanine derivative having phosphorus derivative as axially substituted group, method for manufacturing the same and optical film using the same” (Orient Chemical Industries, Ltd., priority 2008, dated 2012)
